Key:
pore-only NavMs = target: T1, pore-only NavMs (Magnetococcus marinus, UniProt A0L5S6); assay: […]+ uptake into proteoliposomes; assay type: biochemical; conditions: 3:1 POPE:guest lipid, pH 7.5, 60 min; small but significant activation
T1 construct: gene Mmc1_0798; purified from decyl maltoside; tetramer; reconstituted in liposomes
T1 sequence (A0L5S6 130-237): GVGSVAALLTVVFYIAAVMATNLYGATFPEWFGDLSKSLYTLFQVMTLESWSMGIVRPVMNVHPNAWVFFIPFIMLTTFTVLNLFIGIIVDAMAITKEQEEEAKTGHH

NaChBac = target: T2, NaChBac (Halalkalibacterium halodurans, UniProt Q9KCR8); assay: […]+ uptake into proteoliposomes; assay type: biochemical; conditions: 3:1 POPE:guest lipid, pH 7.5, 120 min; activator, greatest activity of guest lipids tested, modest variation
T2 construct: gene BH1501; full-length, expressed in E. coli, hexa-His tag cleaved with thrombin; ~31 kDa monomer; tetramer; reconstituted in liposomes
T2 sequence (Q9KCR8 1-274): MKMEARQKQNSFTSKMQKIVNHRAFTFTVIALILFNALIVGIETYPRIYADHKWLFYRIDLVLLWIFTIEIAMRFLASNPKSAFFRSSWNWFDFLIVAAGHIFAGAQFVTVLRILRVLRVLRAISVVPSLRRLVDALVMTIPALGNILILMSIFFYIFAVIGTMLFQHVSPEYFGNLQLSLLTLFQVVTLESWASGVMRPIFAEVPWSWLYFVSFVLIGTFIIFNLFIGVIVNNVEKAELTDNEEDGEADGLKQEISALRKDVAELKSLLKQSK

NavMs = target: T3, NavMs (Magnetococcus marinus, UniProt A0L5S6); assay: […]+ uptake into proteoliposomes; assay type: biochemical; conditions: 3:1 POPE:guest lipid, pH 7.5, 60 min; activator, greatest activity of guest lipids tested
T3 construct: gene Mmc1_0798; expressed in E. coli, hexa-His tag cleaved with thrombin; tetramer; reconstituted in liposomes
T3 sequence (A0L5S6 1-239 limits assumed): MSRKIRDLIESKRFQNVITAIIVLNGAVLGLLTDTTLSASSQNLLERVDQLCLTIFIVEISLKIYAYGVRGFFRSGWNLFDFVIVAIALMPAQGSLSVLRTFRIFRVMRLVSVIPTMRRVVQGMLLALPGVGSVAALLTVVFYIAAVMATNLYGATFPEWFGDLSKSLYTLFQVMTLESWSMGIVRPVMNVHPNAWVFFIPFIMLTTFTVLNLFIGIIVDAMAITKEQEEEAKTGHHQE

[1] = target: NavSp pore-only construct (voltage sensor subdomain removed) (Silicibacter pomeroyi); assay: SEC; gel filtration of pore-only constructs in decyl maltoside (0.2% DM); elution at tetramer mass plus DM micelle (~30 kDa)
[2] = target: NavSp, voltage-gated sodium channel from Silicibacter pomeroyi (Silicibacter pomeroyi) (UniProt F7IVA8); assay: SEC; Superdex 200 10/300 GL; 10 mM Tris-HCl pH 7.5, 100 mM NaCl, 0.02% NaN3, 0.25% Cymal-5; elution at tetramer mass plus Cymal-5 micelle (~23 kDa)
NavSp = target: T4, NavSp (Ruegeria pomeroyi, UniProt F7IVA8); assay: […]+ uptake into proteoliposomes; assay type: biochemical; conditions: 3:1 POPE:PI liposomes with 1% PI(4,5)P2, pH 7.5; inhibitor
T4 construct: gene SPO0030; full-length, expressed in E. coli, N-terminal hexa-His tag cleaved with thrombin; 258 amino acids; ~29 kDa monomer; tetramer; reconstituted in liposomes
T4 sequence (F7IVA8 1-258): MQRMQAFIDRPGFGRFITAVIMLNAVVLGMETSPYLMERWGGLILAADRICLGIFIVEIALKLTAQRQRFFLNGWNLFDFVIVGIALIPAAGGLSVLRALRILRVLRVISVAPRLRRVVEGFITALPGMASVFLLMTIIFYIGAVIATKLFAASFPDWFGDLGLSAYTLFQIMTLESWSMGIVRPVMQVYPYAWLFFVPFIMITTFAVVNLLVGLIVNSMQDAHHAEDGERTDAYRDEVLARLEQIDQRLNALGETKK

[3] = target: the molecule itself; assay: SEC; Superdex 200 10/300 GL; 10 mM Tris-HCl pH 7.5, 100 mM NaCl, 0.02% NaN3, 0.25% Cymal-5; elution at tetramer mass plus Cymal-5 micelle (~23 kDa)
[4] = target: the molecule itself; assay: SEC; gel filtration of pore-only constructs in decyl maltoside (0.2% DM); elution at tetramer mass plus DM micelle (~30 kDa)

Molecule: CCCCCCCC/C=C\CCCCCCCC(=O)OC[C@H](COP(=O)(O)OCC(O)COP(=O)(O)OC[C@@H](COC(=O)CCCCCCC/C=C\CCCCCCCC)OC(=O)CCCCCCC/C=C\CCCCCCCC)OC(=O)CCCCCCC/C=C\CCCCCCCC (some centres unmarked) [CL, 18∶1 cardiolipin]
- 22Na+ uptake into proteoliposomes (pore-only NavMs): small but significant increase in activity when CL was present in the liposomes

Molecule: CCCCCCCC/C=C\CCCCCCCC(=O)O[C@H](COC(=O)CCCCCCCCCCCCCCC)COP(=O)(O)OCC(O)CO (some centres unmarked) [PG, 1-palmitoyl 2-oleoyl phospatidyl glycerol]
- 22Na+ uptake into proteoliposomes (NaChBac): NavMs and NaChBac also showed maximal activity with a negatively-charged lipid
- 22Na+ uptake into proteoliposomes (NavMs): NavMs and NaChBac also showed maximal activity with a negatively-charged lipid

Molecule: NavSp pore-only construct (voltage sensor subdomain removed) (domain or fragment)
- stoichiometry N [1]: 4

Molecule: NavSp, voltage-gated sodium channel from Silicibacter pomeroyi (from UniProt F7IVA8 1-258) (natural protein)
- stoichiometry N [2]: 4

Molecule: phosphatidylinositol 4,5-bisphosphate [PI(4,5)P2]
- % inhibition at 1% PI(4,5)P2 (NavSp): ~ 50%

B1: NaChBac, voltage-gated sodium channel from Bacillus halodurans (natural protein, UniProt Q9KCR8 1-274, looked up)
chain: T2 sequence (Q9KCR8 1-274)
notes: NaChBac, voltage-gated sodium channel of Bacillus halodurans, Uniprot ID Q9KCR8, full length; pET15b vector was bought; source: E. coli, purified (DDM solubilisation, Ni-NTA in Cymal-5, thrombin, gel filtration)
- stoichiometry N [3]: 4

B2: NavMs pore-only construct (voltage sensor subdomain removed) (domain or fragment, Magnetococcus spirillium (strain MC-1))
chain: T1 sequence (A0L5S6 130-237)
notes: NavMs of Magnetococcus spirillium (strain MC-1), Uniprot ID printed as AOL5S6 (A0L5S6), pore-only construct without the voltage sensor subdomain; PDB 4F4L is the cited crystal structure of the NavMs pore; also called pore-only NavMs; source: E. coli, purified in decyl maltoside (DM)
- stoichiometry N [4]: 4

— PMC3620320, “Differential Lipid Dependence of the Function of Bacterial Sodium Channels” (PLoS ONE, 2013)
